Data taken from US20240343717A1, “MICROBIOCIDAL PYRAZOLE DERIVATIVES” (SYNGENTA CROP PROTECTION AG, priority 2021, published 2024).

Experiments:
[1] = system: Alternaria solani; assay: Alternaria solani / tomato / leaf disc (early blight); format: in vivo; conditions: foliar, tomato leaf disks, sprayed 2 days before inoculation, compared to untreated control
Experimental: Example B1: Alternaria solani/Tomato/Leaf Disc (Early Blight) Tomato leaf disks cv. Baby are placed on agar in multiwell plates (24-well format) and sprayed with the formulated test compound diluted in water. The leaf disks are inoculated with a spore suspension of the fungus 2 days after application. The inoculated leaf disks are incubated at 23° C./21° C.

[2] = system: Botryotinia fuckeliana (Botrytis cinerea); assay: Botryotinia fuckeliana (Botrytis cinerea) / liquid culture (gray mould); format: cell-based; conditions: growth inhibition photometrically 3-4 days after application, read-out: control of Botryotinia fuckeliana
In short: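 Conidia suspended in Vogels broth and added to compound dispensed from DMSO. Incubated at 24°C, with growth inhibition measured photometrically 3–4 days later.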

[3] = system: Glomerella lagenarium (Colletotrichum lagenarium); assay: Glomerella lagenarium (Colletotrichum lagenarium) / liquid culture (anthracnose); format: cell-based; conditions: Colletotrichum orbiculare, growth inhibition photometrically 3-4 days after application, read-out: control of Glomerella lagenarium
In short: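 Cryo-stored conidia in potato dextrose broth were added to test compound in DMSO. Plates were incubated at 24° C, and growth inhibition was read photometrically 3-4 days after application.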

[4] = system: Blumeria graminis f. sp. tritici (Erysiphe graminis f. sp. tritici); assay: Blumeria graminis f. sp. tritici / wheat / leaf disc preventative (powdery mildew on wheat); format: in vivo; conditions: foliar, wheat leaf segments, inoculated 1 day after application
In short: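 Wheat cv. Kanzler leaf segments on agar sprayed with formulated compound in water, inoculated 1 day later by shaking mildew-infected plants overhead. Incubated at 20° C, 60% rh, 24 h dark then 12 h light/12 h dark. Percent disease control versus untreated scored 6-8 days after application.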

[5] = system: Fusarium culmorum; assay: microbe, parasite or virus in culture; format: cell-based; conditions: read-out: control of Fusarium culmorum
[6] = system: Gibberella zeae (Fusarium graminearum); assay: whole plant or invertebrate; format: in vivo; conditions: in Triticum aestivum, read-out: control of Gibberella zeae
[7] = system: Phaeosphaeria nodorum (Septoria nodorum); assay: Phaeosphaeria nodorum (Septoria nodorum) / wheat / leaf disc preventative (glume blotch); format: in vivo; conditions: Parastagonospora nodorum, foliar, wheat leaf segments, inoculated 2 days after application
In short: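 Wheat cv. Kanzler leaf segments on agar sprayed preventatively with formulated compound diluted in water, then inoculated with spore suspension 2 days after application. Incubated at 20° C, 75% rh, 12 h light/12 h dark; percent disease control versus untreated scored 5-7 days after application.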

[8] = system: Monographella nivalis (Microdochium nivale); assay: Monographella nivalis (Microdochium nivale) / liquid culture (foot rot cereals); format: cell-based; conditions: growth inhibition photometrically 4-5 days after application, read-out: control of Monographella nivalis
In short: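 Fungal conidia mixed directly into potato dextrose broth and added to test compound delivered in DMSO. Incubated at 24° C; growth inhibition read photometrically 4-5 days after application.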

[9] = system: Mycosphaerella arachidis (Cercospora arachidicola); assay: Mycosphaerella arachidis (Cercospora arachidicola) / liquid culture (early leaf spot); format: cell-based; conditions: growth inhibition photometrically 4-5 days after application, read-out: control of Mycosphaerella arachidis
In short: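 Spores taken straight from cryostorage are suspended in potato dextrose broth and added to test compound in DMSO. Plates are incubated at 24° C. Growth inhibition is scored photometrically 4-5 days after application.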

[10] = system: Magnaporthe grisea (Pyricularia Oryzae); assay: whole plant or invertebrate; format: in vivo; conditions: foliar, read-out: control of Magnaporthe grisea
[11] = system: Pyrenophora teres; assay: Pyrenophora teres / barley / leaf disc preventative (net blotch); format: in vivo; conditions: foliar, barley leaf segments, inoculated 2 days after application
In short: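 Barley cv. Hasso leaf segments on agar sprayed with formulated compound, inoculated with spores 2 days later. Incubated at 20 °C, 65% rh, 12 h light/dark; disease control versus untreated assessed 5–7 days after application.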

[12] = system: Sclerotinia sclerotiorum; assay: Sclerotinia sclerotiorum / liquid culture (cottony rot); format: cell-based; conditions: growth inhibition photometrically 3-4 days after application, read-out: control of Sclerotinia sclerotiorum
In short: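 Mycelial fragments from fresh liquid culture in potato dextrose broth added to test compound in DMSO. Incubation at 24° C; growth inhibition read photometrically 3-4 days after application.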

[13] = system: Mycosphaerella graminicola (Septoria tritici); assay: Mycosphaerella graminicola (Septoria tritici) / liquid culture (Septoria blotch); format: cell-based; conditions: Zymoseptoria tritici, growth inhibition photometrically 4-5 days after application, read-out: control of Mycosphaerella graminicola
In short: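 Conidia suspended in potato dextrose broth and added to test compound supplied in DMSO in 96-well plates. Incubated at 24 °C, and growth inhibition read photometrically 4-5 days after application.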

[14] = system: Puccinia recondita f. sp. tritici; assay: Puccinia recondita f. sp. tritici / wheat / leaf disc curative (brown rust); format: in vivo; conditions: 200 ppm, wheat leaf segments, applied 1 day after inoculation
Experimental: Example B11: Puccinia recondita f. Sp. Tritici/Wheat/Leaf Disc Curative (Brown Rust)
Wheat leaf segments cv. Kanzler are placed on agar in multiwell plates (24-well format). The leaf segments are inoculated with a spore suspension of the fungus. Plates are stored in darkness at 19° C. and 75% rh. The formulated test compound diluted in water is applied 1 day after inoculation. The leaf segments are incubated at 19° C. and 75% rh under a light regime of 12 h light/12 h darkness in a climate cabinet and the activity of a compound is assessed as percent disease control compared to untreated when an appropriate level of disease damage appears in untreated check leaf segments (6-8 days after application).

[15] = system: Fusarium culmorum; assay: whole plant or invertebrate; format: in vivo; conditions: in Triticum aestivum, read-out: control of Fusarium culmorum

Compound	pest or weed control at 200 ppm [1]	inhibition of growth at 20 ppm [2]	inhibition of growth at 20 ppm [3]	pest or weed control at 200 ppm [4]	inhibition of growth at 20 ppm [5]	pest or weed control at 200 ppm [6]	pest or weed control at 200 ppm [7]	inhibition of growth at 20 ppm [8]	inhibition of growth at 20 ppm [9]	pest or weed control at 200 ppm [10]	pest or weed control at 200 ppm [11]	inhibition of growth at 20 ppm [12]	inhibition of growth at 20 ppm [13]	control of Puccinia recondita f. sp. tritici [14]	pest or weed control at 200 ppm [15]	melting point
Cn1ncc(C(C)(CNC(=O)c2cc(-c3ccc(F)cc3F)on2)c2cccc(Cl)n2)c1Cl (stereo not shown) [Compound P-26, N-[2-(5-chloro-1-methyl-pyrazol-4-yl)-2-(6-chloro-2-pyridyl)propyl]-5-(2,4-difluorophenyl) isoxazole-3-carboxamide]	≥ 80%	≥ 80%	≥ 80%	≥ 80%	≥ 80%	≥ 80%	≥ 80%	≥ 80%	≥ 80%	≥ 80%	≥ 80%	≥ 80%	≥ 80%	–	–	–
Cc1ccc(C(C)(CNC(=O)c2cc(-c3ccc(F)cc3F)on2)c2cnn(C)c2)nc1 (stereo not shown) [Compound P-19, 5-(2,4-difluorophenyl)-N-[2-(1-methylpyrazol-4-yl)-2-(5-methyl-2-pyridyl)propyl] isoxazole-3-carboxamide]	≥ 80%	≥ 80%	≥ 80%	≥ 80%	–	–	–	≥ 80%	–	–	≥ 80%	–	≥ 80%	at least 80%	–	–
CO/N=C(\C)c1cccc(C(C)(CNC(=O)c2cc(-c3ccc(F)cc3F)on2)c2cnn(C)c2)n1 (stereo not shown) [Compound P-49, 5-(2,4-difluorophenyl)-N-[2-[6-[(E)-N-methoxy-C-methyl-carbonimidoyl]-2-pyridyl]-2-(1-methylpyrazol-4-lyl)propyl]isoxazole-3-carboxamide]	≥ 80%	≥ 80%	≥ 80%	≥ 80%	≥ 80%	–	≥ 80%	≥ 80%	≥ 80%	≥ 80%	≥ 80%	≥ 80%	≥ 80%	–	≥ 80%	–
Cc1ccc(C(C)(CNC(=O)c2cc(-c3ccc(F)cc3F)on2)c2cnn(C)c2)nc1Br (stereo not shown) [Compound P-110, N-[2-(6-bromo-5-methyl-2-pyridyl)-2-(1-methylpyrazol-4-yl)propyl]-5-(2,4-difluorophenyl) isoxazole-3-carboxamide]	≥ 80%	≥ 80%	≥ 80%	≥ 80%	≥ 80%	–	≥ 80%	≥ 80%	≥ 80%	≥ 80%	≥ 80%	≥ 80%	≥ 80%	–	–	–
Cn1cc(C(C)(CNC(=O)c2cc(-c3ccc(F)cc3F)on2)c2cccc(Cl)n2)cn1 (stereo not shown) [Compound P-10, N-[2-(6-chloro-2-pyridyl)-2-(1-methylpyrazol-4-yl)propyl]-5-(2,4-difluorophenyl)isoxazole-3-carboxamide]	≥ 80%	≥ 80%	≥ 80%	≥ 80%	≥ 80%	–	≥ 80%	≥ 80%	≥ 80%	≥ 80%	≥ 80%	≥ 80%	≥ 80%	–	≥ 80%	–
Cn1cc(C(C)(CNC(=O)c2cc(-c3ccc(F)cc3F)on2)c2cccc(C#N)n2)cn1 (stereo not shown) [Compound P-15, N-[2-(6-cyano-2-pyridyl)-2-(1-methylpyrazol-4-yl)propyl]-5-(2,4-difluorophenyl) isoxazole-3-carboxamide]	≥ 80%	≥ 80%	≥ 80%	≥ 80%	≥ 80%	–	≥ 80%	≥ 80%	≥ 80%	≥ 80%	≥ 80%	–	≥ 80%	–	–	–
Cn1cc(C(C)(CNC(=O)c2cc(-c3ccc(F)cc3F)no2)c2cccc(Cl)n2)cn1 (stereo not shown) [Compound P-42, N-[2-(6-chloro-2-pyridyl)-2-(1-methylpyrazol-4-yl)propyl]-3-(2,4-difluorophenyl) isoxazole-5-carboxamide]	–	≥ 80%	–	–	≥ 80%	≥ 80%	≥ 80%	≥ 80%	≥ 80%	≥ 80%	≥ 80%	≥ 80%	≥ 80%	–	≥ 80%	126 to 128 °C
